What was measured:
Karpas 299 xenograft = Karpas 299 xenograft study with anti-CD30 ADCs; details: single i.v. dose 3 mg/kg (equal dosing)
L-82 xenograft = L-82 xenograft with CD30 ADCs; assay type: in vivo, NOD/SCID mice; details: single i.v. dose 3 mg/kg (equal dosing)
Method: Female NOD/SCID mice were used (8 mice/group) for the study. Animals were inoculated subcutaneously in the flank with 10 million cells in 50% PBS/50% Matrigel. When tumors reached an average volume of 100 mm^3, all animals were treated (Day 0) with a single 10 mg/kg intravenous dose of human IgG. Then, on Day 1, animals were treated with vehicle alone, with unconjugated antibody (3 mg/kg), or with an ADC at 1.5 or 3 mg/kg. The animals were monitored twice weekly for body weight and tumor size. Animals were euthanized when tumors reached 2000 mm^3. ADCs were highly efficacious in this study.

Granta 519 xenograft = assay: First Granta xenograft study; assay type: in vivo; details: polatuzumab ADCs, single dose on Day 7, equal payload dosing levels
Text: First Granta Xenograft Study Results: Polatuzumab ADCs carrying MMAE conjugated through five different linker types, including vedotin and CT aldehyde-tagged HIPS conjugates were compared for efficacy at equal payload dosing levels in a Granta 519 xenograft study.

Male Sprague-Dawley rats = assay: Multi-dose non-GLP rat toxicology study #1; assay type: in vivo; details: polatuzumab ADCs, DAR ~4, i.v. weekly for 4 doses (days 1, 8, 15, 22), equal payload/equal antibody dosing

Substance | complete responses (Karpas 299 xenograft) | complete responses (L-82 xenograft) | efficacy (tumor growth inhibition) (Granta 519 xenograft) | tolerability (white and red blood cell parameters) (Male Sprague-Dawley rats)
Adcetris: anti-CD30 ADC used as comparator | 6/6 | 8 complete responses out of 8 mice/group | – | –
polatuzumab vedotin | – | – | longest tumor growth inhibition | marked myelosuppression
